The results in this text go back to ChEMBL document CHEMBL1201862, “PubChem BioAssay data set” (2004).

Among the test systems are NCI-H226; SW-620; OVCAR-8; IGROV-1; A549; SR; SNB-19; CAKI-1; UO-31; KM12; TK-10; MCF7; T47D; SN12C; SK-MEL-5; BT-549; MDA-MB-231; EKVX; HL-60.
What all share (test): inhibition of tumour cell growth, NCI panel, 48 h

Molecules are shown by their SMILES.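 Method: 48-hour compound exposure of cells in 96-well plates, five concentrations, linear interpolation of endpoints. Here, GI50 denotes the concentration required for 50% inhibition of growth.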 Calls of active or inactive are those of the source. Rule as the data show it: active = GI50 up to about 1.1 µM and inactive = higher.

As for `CC(C)C[C@H](NC(=O)[C@@H](N)Cc1cccc2ccccc12)B(O)O`, the GI50 in the assay on NCI-H226 is < 0.0132 µM (active); in the assay with SW-620, < 0.015 µM (active); in the assay with OVCAR-8 it was 0.0719 µM (active); with IGROV-1 it was 0.0665 µM (active); in the assay on A549 it was 0.0766 µM (active); with SR, < 0.0154 µM (active). Besides, the GI50 with SNB-19 is 2.47 µM (inactive); in the assay with CAKI-1 it was < 0.0164 µM (active); in the assay with UO-31, 0.0331 µM (active); in the assay with KM12, 0.0281 µM (active); with TK-10 it was < 0.0182 µM (active); in the assay on MCF7 it was < 0.0232 µM (active). For the same molecule, the GI50 with T47D is 0.0168 µM (active); in the assay on SN12C, 0.0426 µM (active); with SK-MEL-5, < 0.0169 µM (active); in the assay on BT-549, 0.0203 µM (active); in the assay on MDA-MB-231, 0.0354 µM (active).

Regarding `O=C(/C=C/c1csc(-c2ccccc2)n1)NCc1ccc(C(=O)NCCc2ccccc2)cc1`, the GI50 in the assay with NCI-H226 was 25.5 µM (inactive); in the assay with SW-620 it was 74.5 µM (inactive); with OVCAR-8, 4.23 µM (inactive); in the assay with IGROV-1, 36.6 µM (inactive); in the assay with A549, 26.7 µM (inactive); in the assay with SR, > 100 µM (inactive). Besides, the GI50 in the assay on SNB-19 was 11.4 µM (inactive); in the assay on CAKI-1 it was 15.6 µM (inactive); in the assay on EKVX, 93.5 µM (inactive); in the assay on UO-31 it was 48.1 µM (inactive); in the assay on KM12 it was 61.1 µM (inactive); with TK-10, 11.7 µM (inactive). Also, the GI50 in the assay with MCF7 was 72.3 µM (inactive); in the assay with T47D it was 41.2 µM (inactive); in the assay with SN12C, 44.9 µM (inactive); in the assay on SK-MEL-5, 69.5 µM (inactive); in the assay with BT-549, 22.3 µM (inactive); in the assay on MDA-MB-231, 5.38 µM (inactive).

With `O=C(O)C(F)(OC(F)(F)C(F)(F)C(F)(F)F)C(F)(F)F` (centres undefined), the GI50 in the assay with NCI-H226, with SW-620, in the assay with OVCAR-8, in the assay with IGROV-1, with A549 and in the assay with SNB-19 was > 100 µM (inactive) throughout. In addition, the GI50 with CAKI-1, in the assay with EKVX, in the assay on UO-31, with KM12, in the assay on TK-10 and in the assay with MCF7 was > 100 µM (inactive) throughout. In addition, the GI50 with T47D, in the assay on HL-60, in the assay on SN12C, in the assay with SK-MEL-5, with BT-549 and in the assay on MDA-MB-231 was > 100 µM (inactive) in each case.

In the case of `CCCCCCCCCCCCOP(=O)(O)OP(=O)(O)OCC1OC(n2ccc(N)nc2=O)CC1O` (centres undefined), the GI50 in the assay with NCI-H226, with SW-620, with OVCAR-8, in the assay with IGROV-1, in the assay with A549 and in the assay with SNB-19 was > 100 µM (inactive) throughout. For the same molecule, the GI50 in the assay with CAKI-1, in the assay with EKVX, with UO-31, in the assay with KM12, with TK-10 and in the assay with MCF7 was > 100 µM (inactive) throughout. In addition, the GI50 in the assay with T47D is 38.3 µM (inactive); in the assay with HL-60 it was > 100 µM (inactive); with SN12C, > 100 µM (inactive); with SK-MEL-5, > 100 µM (inactive); in the assay with BT-549 it was > 100 µM (inactive); in the assay on MDA-MB-231 it was > 100 µM (inactive).

As to `O=c1sc2c(s1)-c1sc(=O)sc1SS2`, the GI50 in the assay with NCI-H226 was 38.6 µM (inactive); with SW-620, > 100 µM (inactive); in the assay with OVCAR-8, 21.6 µM (inactive); in the assay on IGROV-1, > 96.4 µM (inactive); in the assay with A549, > 100 µM (inactive); in the assay with SNB-19, > 100 µM (inactive). For the same molecule, the GI50 was > 100 µM (inactive) in the assay with CAKI-1; > 76.2 µM (inactive) in the assay on EKVX; > 100 µM (inactive) with UO-31; > 100 µM (inactive) with KM12; > 52.6 µM (inactive) in the assay with TK-10; > 100 µM (inactive) in the assay on MCF7. Also, the GI50 is > 100 µM (inactive) in the assay with T47D; > 100 µM (inactive) in the assay on HL-60; > 100 µM (inactive) in the assay with SN12C; > 56.5 µM (inactive) with SK-MEL-5; > 100 µM (inactive) in the assay with BT-549; > 100 µM (inactive) in the assay with MDA-MB-231.

Consider `COC(=O)C1C/C(=C/N(C)C)C(=S)N1` (centres undefined), for which the GI50 in the assay on SW-620, with OVCAR-8, in the assay on IGROV-1, with A549, in the assay on SR and with SNB-19 was > 100 µM (inactive) in each case. Also, the GI50 in the assay on CAKI-1, in the assay with EKVX, in the assay on UO-31, with KM12, in the assay on TK-10 and with MCF7 was > 100 µM (inactive) in each case. In addition, the GI50 in the assay on T47D, with SK-MEL-5, in the assay on BT-549 and in the assay on MDA-MB-231 was > 100 µM (inactive) in each case.

With `COc1cc(C2SCCCCCCCCCCSC(c3ccc(O)c(OC)c3)SCCCCCCCCCCS2)ccc1O` (centres undefined), the GI50 in the assay on NCI-H226 was > 100 µM (inactive); with SW-620, > 100 µM (inactive); in the assay on OVCAR-8 it was > 100 µM (inactive); in the assay on IGROV-1, > 100 µM (inactive); in the assay on A549, > 100 µM (inactive); with SR, 56.1 µM (inactive). The GI50 in the assay on SNB-19, with CAKI-1, in the assay with EKVX, in the assay on UO-31, in the assay with KM12 and with TK-10 was > 100 µM (inactive) in each case. The GI50 with MCF7, with T47D, in the assay on SN12C, with SK-MEL-5, with BT-549 and in the assay with MDA-MB-231 was > 100 µM (inactive) in each case.

Consider `O=C(c1ccc(Cl)cc1)N1N=C(c2ccc(Cl)cc2)CC1(O)c1cc(F)c(Cl)cc1Cl` (centres undefined), for which the GI50 is 50.6 µM (inactive) in the assay on NCI-H226; 17.4 µM (inactive) with SW-620; 21.3 µM (inactive) with OVCAR-8; 17.9 µM (inactive) in the assay with IGROV-1; 19.6 µM (inactive) with A549; 14.6 µM (inactive) in the assay with SNB-19. Further, the GI50 is 13.8 µM (inactive) with CAKI-1; 8.59 µM (inactive) in the assay with EKVX; 9.06 µM (inactive) in the assay on UO-31; 6.97 µM (inactive) with KM12; 52.7 µM (inactive) with TK-10; 7.14 µM (inactive) in the assay with MCF7. The GI50 was 9.95 µM (inactive) with T47D; 21.2 µM (inactive) in the assay on HL-60; 14.5 µM (inactive) in the assay with SN12C; 68.2 µM (inactive) in the assay on SK-MEL-5; 62.2 µM (inactive) in the assay on BT-549; 34.2 µM (inactive) in the assay on MDA-MB-231.

On to `O=C(/C(=N\Nc1ccc([N+](=O)[O-])cc1[N+](=O)[O-])NC12CC3CC(CC(C3)C1)C2)C(Br)C(=O)c1ccccc1` (centres undefined), for which the GI50 in the assay on NCI-H226 was 2.52 µM (inactive); with SW-620, 0.766 µM (active); in the assay on OVCAR-8, 3.48 µM (inactive); in the assay on IGROV-1, 6.67 µM (inactive); in the assay on A549, 3.33 µM (inactive); in the assay with SNB-19, 3.97 µM (inactive). The GI50 in the assay with CAKI-1 was 3.2 µM (inactive); with EKVX it was 3.56 µM (inactive); in the assay with UO-31 it was 6.12 µM (inactive); in the assay on KM12, 2.78 µM (inactive); in the assay with TK-10, 5.66 µM (inactive); in the assay on MCF7, 3.86 µM (inactive). Also, the GI50 with T47D was 2.69 µM (inactive); with HL-60, 2.94 µM (inactive); with SN12C it was 3.12 µM (inactive); in the assay with SK-MEL-5, 1.08 µM (active); in the assay with BT-549, 4.44 µM (inactive); in the assay on MDA-MB-231 it was 2.27 µM (inactive).

Turning to `Cc1ccc(S(=O)(=O)Oc2cc(N)c3c(n2)CCC3)cc1`, the GI50 in the assay with NCI-H226 was 36.8 µM (inactive); in the assay on SW-620, > 100 µM (inactive); in the assay with OVCAR-8, > 100 µM (inactive); with IGROV-1, > 100 µM (inactive); with A549 it was > 100 µM (inactive); in the assay with SNB-19, > 100 µM (inactive). Besides, the GI50 in the assay on CAKI-1 was > 100 µM (inactive); in the assay with EKVX, 42.3 µM (inactive); in the assay with UO-31, 69.3 µM (inactive); in the assay on KM12, > 100 µM (inactive); in the assay on TK-10 it was > 100 µM (inactive); with MCF7 it was > 100 µM (inactive). The GI50 in the assay with T47D is 56.4 µM (inactive); in the assay with HL-60, 43.2 µM (inactive); in the assay on SN12C, > 100 µM (inactive); in the assay on SK-MEL-5, 39 µM (inactive); with BT-549, > 100 µM (inactive); with MDA-MB-231 it was > 100 µM (inactive).

Regarding `CCOC(=O)c1nc2ccccc2nc1NCc1ccc(Cl)cc1Cl`, the GI50 in the assay with NCI-H226 was > 100 µM (inactive); with SW-620, > 100 µM (inactive); in the assay with OVCAR-8 it was > 100 µM (inactive); with IGROV-1 it was > 100 µM (inactive); in the assay on A549, > 100 µM (inactive); with SR, 60.7 µM (inactive). The GI50 in the assay on SNB-19, with CAKI-1, in the assay with EKVX, in the assay on UO-31, in the assay with KM12 and in the assay with TK-10 was > 100 µM (inactive) each time. The GI50 in the assay on MCF7, in the assay with T47D, with SK-MEL-5, with BT-549 and in the assay on MDA-MB-231 was > 100 µM (inactive) each time.
